By Ki is commonly meant the dissociation constant of the complex between target and ligand, obtained from inhibition or displacement.

In experiment [1] the target is CB1 (Rattus norvegicus, UniProt P20272). Briefly: CB1 receptor binding affinity (Ki). Here is the method:
Some disclosed compounds were tested for CB1 and CB2 receptor binding affinity (Tables 1, 2, 3, 4, 5, 6). As used herein “binding affinity” is represented by the Ki value. The Ki value is the affinity constant and describes the affinity of the compound for the receptor. […] A detailed description of the methods used to test “binding affinity” of compounds is given in Makriyannis, et al., US 2007, 0135388 and in Papahatjis, et al. J. Med. Chem. (2007) 4048, the content of each of which is hereby incorporated by reference.

Experiment [2] concerns the target CB2 receptor (UniProt P47936). Briefly: CB2 receptor binding affinity (Ki). The note with it: read-out: CB2 receptor Ki. Here is the method:
Some disclosed compounds were tested for CB1 and CB2 receptor binding affinity (Tables 1, 2, 3, 4, 5, 6). As used herein “binding affinity” is represented by the Ki value. The Ki value is the affinity constant and describes the affinity of the compound for the receptor. The lower the Ki value, the higher the affinity of the compound for the receptor. A detailed description of the methods used to test “binding affinity” of compounds is given in Makriyannis, et al., US 2007, 0135388 and in Papahatjis, et al. J. Med. Chem. (2007) 4048, the content of each of which is hereby incorporated by reference.

CB1, sequence (P20272 whole entry): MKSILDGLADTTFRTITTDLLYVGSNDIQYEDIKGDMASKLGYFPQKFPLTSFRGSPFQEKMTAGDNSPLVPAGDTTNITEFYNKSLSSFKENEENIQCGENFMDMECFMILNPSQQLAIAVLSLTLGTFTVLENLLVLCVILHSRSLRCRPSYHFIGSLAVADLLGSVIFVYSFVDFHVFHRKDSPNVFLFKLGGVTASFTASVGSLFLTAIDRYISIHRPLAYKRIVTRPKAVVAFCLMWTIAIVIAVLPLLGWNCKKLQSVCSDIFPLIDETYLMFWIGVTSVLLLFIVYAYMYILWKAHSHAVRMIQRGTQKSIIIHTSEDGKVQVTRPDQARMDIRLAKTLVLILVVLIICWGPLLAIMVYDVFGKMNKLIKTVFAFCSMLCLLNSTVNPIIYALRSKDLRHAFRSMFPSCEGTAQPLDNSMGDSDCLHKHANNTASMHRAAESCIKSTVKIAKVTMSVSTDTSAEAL

Consider `CC1=C[C@H](c2c(O)cc(C3(CCCCBr)CCC3)cc2O)[C@@H]2C[C@H]1C2(C)C` [Compound 40.15, (+)-2-[(1R,4S,5S)-2,6,6-trimethylbicylco[3.1.1]hept-2-en-4-yl]-5-[(5-bromobutyl)cyclobutyl]resorcinol], for which the inhibition constant (Ki) came out at 11 nM in experiment [1] and 1.9 nM in experiment [2].

With `CCCCCc1cc(O)c([C@@H]2C=C(C)[C@@H]3C[C@H]2C3(C)C)c(O)c1` [Compound 43.1, (−)-2-[(1S,4R,5R)-2,6,6-trimethylbicyclo[3.1.1]hept-2-en-4-yl]-5-pentyl-resorcinol, reference compound], the Ki was determined as 837 nM in experiment [1] and 565 nM in experiment [2].

Consider `CCCC/C=C\C1(c2cc(O)c([C@@H]3C=C(C)[C@@H]4C[C@H]3C4(C)C)c(O)c2)CCCC1` [Compound 43.5, (−)-2-[(1S,4R,5R)-2,6,6-trimethylbicyclo[3.1.1]hept-2-en-4-yl]-5-[1-(1,2-cis-hexen-1-yl)-cycolpentyl-1-yl]resorcinol], for which the Ki amounted to 45 nM in experiment [1] and 29 nM in experiment [2].

Regarding `C=C(C)[C@@H]1CCC(=O)C[C@H]1c1c(O)cc(C23CC4CC(CC(C4)C2)C3)cc1O` [Compound 48.2, (3R,4R)-3-[4-(1-Adamantyl)-2,6-dihydroxyphenyl]-4-isopropenylcyclohexan-1-one], the inhibitory constant (Ki) was 694 nM in experiment [1] and greater than 1000 nM in experiment [2].

Consider `C=C(C)[C@@H]1CCC(=COC)C[C@H]1c1c(O)cc(C23CC4CC(CC(C4)C2)C3)cc1O` [Compound 49.2, (3R,4R)-3-[4-(1-Adamantyl)-2,6-dihydroxyphenyl]-4-isopropenyl-1-(methoxymethylene)cyclohexane], for which the Ki was 1760 nM in experiment [1] and 375 nM in experiment [2].

As for `C=C(C)[C@@H]1CC[C@@H](CO)C[C@H]1c1c(O)cc(C23CC4CC(CC(C4)C2)C3)cc1O` [Compound 51.2, (1R,3R,4R)-3-[4-(1-Adamantyl)-2,6-dihydroxyphenyl]-4-isopropenyl-1-(hydroxymethyl)cyclohexane], the Ki is 910 nM in experiment [1] and 16 nM in experiment [2].

With `C=C(C=O)[C@@H]1CC[C@@H](CO)C[C@H]1c1c(O)cc(C23CC4CC(CC(C4)C2)C3)cc1O` [Compound 53.2, (1R,3R,4R)-3-[4-(1-Adamantyl)-2,6-dihydroxyphenyl]-4-[2′-(propenalyl)]-1-(hydroxymethyl)cyclohexane], the Ki in experiment [1] was 1400 nM; in experiment [2], 20 nM.

As to `C=C(CO)[C@@H]1CC[C@@H](CO)C[C@H]1c1c(O)cc(C23CC4CC(CC(C4)C2)C3)cc1O` [Compound 54.2, (1R,3R,4R)-3-[4-(1-Adamantyl)-2,6-dihydroxyphenyl]-4-[2′-(3′-hydroxyprop-1′-enyl)]-1-(hydroxymethyl)cyclohexane], the Ki in experiment [1] turned out to be 4140 nM; in experiment [2], 185 nM.

For the molecule `C=C(C)[C@@H]1CC[C@@H](O)C[C@H]1c1c(O)cc(C23CC4CC(CC(C4)C2)C3)cc1O` [Compound 55, (1R,3R,4R)-3-[4-(1-Adamantyl)-2,6-dihydroxyphenyl]-4-isopropenyl-1-hydroxycyclohexane], the Ki in experiment [1] was 2400 nM; in experiment [2] it was 343 nM.

As for `CC(C)[C@H]1CC[C@@H](CO)C[C@H]1c1c(O)cc(C23CC4CC(CC(C4)C2)C3)cc1O` [Compound 56, (1R,3R,4R)-3-[4-(1-Adamantyl)-2,6-dihydroxyphenyl]-4-isopropyl-1-(hydroxymethyl)cyclohexane], the results for the Ki in experiment [1] and in experiment [2] were 998 nM and 23 nM, respectively.

Turning to `C=C(C)[C@@H]1CC[C@@H](C(=O)O)C[C@H]1c1c(O)cc(C(C)(C)CCCCCC)cc1O` [Compound 58.2, (1R,3R,4R)-3-[4-(1′,1′-Dimethylheptyl)-2,6-dihydroxyphenyl]-4-isopropenyl-1-carboxylylcyclohexane], the Ki in experiment [1] and in experiment [2] was greater than 1000 nM throughout.

For the molecule `C=C(C)[C@@H]1CC[C@@H](C(N)=O)C[C@H]1c1c(O)cc(C(C)(C)CCCCCC)cc1O` [Compound 59.1, (1R,3R,4R)-3-[4-(1′,1′-Dimethylheptyl)-2,6-dihydroxyphenyl]-4-isopropenyl-1-carboxamidocyclohexane], the Ki in experiment [1] and in experiment [2] was greater than 1000 nM in each case.

Source of the values: patent US9517989B2, “2-cycloalkyl resorcinol cannabinergic ligands” (priority 2012, dated 2016).
